Literature values in US20210308436A1, “COMPLETE UPPER RESPIRATORY TRACT CLEANSING SYSTEM AND ITS USE” (priority 2013, published 2021).
Where a name gives a salt, the structure may show the parent alone.

Tested on: perennial allergic rhinitis
Details: 1% solution in normal saline, once every 48 hours for 4 weeks, vs placebo wash (normal saline only)

In the case of `CN[C@@H](C)[C@H](O)c1ccccc1` [ephedrine hydrochloride], the “peak nasal inspiratory flow rates” value is given as “significant improvement” and the symptom scores is given as “significant improvement”.
